# In patent publication US9730940B2, “Purine inhibitors of human phosphatidylinositol 3-kinase delta” (priority 2012, dated 2017):
# Biological target: PI3K-alpha (Homo sapiens (Human), UniProt P42336)
# Assay: HTRF PI3K biochemical assay, alpha isoform
# Conditions: ratio PI3K-alpha IC50 value/PI3K-delta IC50 value
# Text: HTRF PI3K Biochemical Assay to Measure Intrinsic Potency of Compound Inhibitors
# The PI3-Kinase biochemical assays were developed to measure the intrinsic potency and compound dependent inhibition of the alpha, beta, delta, and gamma PI3K isoform enzymes. This assay was developed and further optimized from a kit produced by Upstate (Millipore catalog #33-047) and has been configured for HTS and SAR screening. Briefly, this procedure exploits the exquisite specificity and high affinity binding of enzyme reaction substrate phosphatidyl(3,4,5)triphosphate (PIP3) to the GRP1 pleckstrin homology (PH) domain to generate the signal. In the absence of PIP3, an HTRF (Homogeneous Time-Resolved Fluorescence energy transfer) complex is formed consisting of europium (Eu)-labeled anti-GST, GST tagged GRP1-PH domain, biotin-PIP3 and streptavidin conjugated APC. The native PIP3 produced by PI3-Kinase activity disrupts in a competitive manner the biotin-PIP3 from the PH domain, resulting in the loss of energy transfer (HTRF complex) and a decrease in the signal. The format of this assay is the same for all 4 isoforms of PI3K; the differences lie in the concentration of enzyme used to achieve robust assay window. The alpha, beta, and delta assays are run at 0.5, 1, and 0.3 nM enzymes and the gamma assay is run at 5 nM enzyme. The ATP concentration is 100 uM in the alpha, beta, and delta assays and 50 uM ATP in the gamma assay. All reactions are run at 5 uM PIP2.
# Compounds are serially diluted (3-fold in 100% DMSO) across a 384-well polypropylene source plated from column 3 to column 12 and column 13 to column 22, to yield 10 concentration dose response for each test compound. Columns 1, 2, 23 and 24 contain either only DMSO or pharmacological known control inhibitor.
# The PI3-Kinase biochemical assay was optimized using the HTRF kit provided by Upstate (Millipore). The assay kit contains six reagents: 1) 4× Reaction Buffer; 2) native PIP2 (substrate); 3) Stop (EDTA); 4) Detection Mix A (Streptavidin-APC); 5) Detection Mix B (Eu-labeled Anti-GST plus GST-tagged PH-domain); 6) Detection Mix C.
# PI3Kinase Reaction Buffer is prepared by dilution the stock 1:4 with de-ionized water. […] Enzyme addition and compound pre-incubation are initiated by the addition of 1.25 ul of PI3K (at twice its final concentration) in the 1× reaction buffer to all wells using a BioRaptor. Plates are incubated at room temperature for 15 minutes. Reactions are initiated by addition of 1.25 ul of 2× substrate solution (PIP2 and ATP in 1× reaction buffer) using BioRaptor. Plates are incubated in humidified chamber at room temperature for one hour. Reactions are quenched by addition of 0.625 uL of stop solution to all wells using the BioRaptor. The quenched reactions are then processed to detect product formation by adding 0.625 uL of Detection Solution to all wells using the BioRaptor (Detection mix C, Detection Mix A, and Detection Mix B combined together in an 18:1:1 ratio prepared 2 hours prior to use).
# The loss of the HTRF signal is due to the displacement of biotinylated-PIP3 from the PH domain by the PI3K-dependent conversion of PIP2 to PIP3. This loss of signal is nonlinear with respect to both increasing product and time. This non-linear detection will impact accuracy of IC50 calculations; therefore, there is a need for a correction factor to obtain more accurate IC50 values. This correction is derived from a PIP3 standard curve run in a separate assay plate. All data were calculated using the ratio of acceptor (APC) to donor (Europium) fluorescence in each well of the assay plate. […] An IC50 was then calculated fitting the % inhibition data to the equation: % inhibition=min+(Max−min)/1+([inhibitor]/IC50)^n) where min is the % inhibition […], max is the signal in DMSO control, and n is the Hill slope.
# Sequence of PI3K-alpha (P42336 whole entry, looked up, canonical isoform): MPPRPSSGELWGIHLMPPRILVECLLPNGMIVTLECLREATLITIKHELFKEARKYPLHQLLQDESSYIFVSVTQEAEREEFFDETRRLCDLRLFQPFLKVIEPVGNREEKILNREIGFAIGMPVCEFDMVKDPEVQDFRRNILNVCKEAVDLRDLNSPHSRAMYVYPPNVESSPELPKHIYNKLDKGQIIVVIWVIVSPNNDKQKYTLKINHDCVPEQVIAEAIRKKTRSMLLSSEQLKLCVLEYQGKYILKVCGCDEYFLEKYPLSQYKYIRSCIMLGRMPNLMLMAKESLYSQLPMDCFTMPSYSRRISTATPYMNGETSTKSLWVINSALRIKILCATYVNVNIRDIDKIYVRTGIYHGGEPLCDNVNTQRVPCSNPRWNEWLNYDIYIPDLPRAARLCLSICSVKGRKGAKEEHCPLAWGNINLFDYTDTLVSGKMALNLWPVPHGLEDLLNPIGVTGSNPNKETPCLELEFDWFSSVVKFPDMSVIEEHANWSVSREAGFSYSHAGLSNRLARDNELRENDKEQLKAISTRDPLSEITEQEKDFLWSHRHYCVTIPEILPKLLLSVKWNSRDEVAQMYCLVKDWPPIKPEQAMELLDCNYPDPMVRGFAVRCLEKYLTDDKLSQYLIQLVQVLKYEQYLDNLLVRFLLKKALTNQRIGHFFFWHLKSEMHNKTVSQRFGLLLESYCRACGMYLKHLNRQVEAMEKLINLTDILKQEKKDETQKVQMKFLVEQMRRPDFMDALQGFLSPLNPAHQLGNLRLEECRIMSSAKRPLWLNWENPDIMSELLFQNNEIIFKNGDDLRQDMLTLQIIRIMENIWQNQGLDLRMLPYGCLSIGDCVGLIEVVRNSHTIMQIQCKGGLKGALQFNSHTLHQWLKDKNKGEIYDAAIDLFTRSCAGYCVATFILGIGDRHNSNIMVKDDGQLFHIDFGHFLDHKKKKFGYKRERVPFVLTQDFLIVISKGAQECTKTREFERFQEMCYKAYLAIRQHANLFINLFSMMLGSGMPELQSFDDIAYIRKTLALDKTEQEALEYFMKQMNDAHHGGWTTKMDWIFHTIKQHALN
# Sequence of PI3K-alpha (P27986 whole entry partner, looked up, canonical isoform): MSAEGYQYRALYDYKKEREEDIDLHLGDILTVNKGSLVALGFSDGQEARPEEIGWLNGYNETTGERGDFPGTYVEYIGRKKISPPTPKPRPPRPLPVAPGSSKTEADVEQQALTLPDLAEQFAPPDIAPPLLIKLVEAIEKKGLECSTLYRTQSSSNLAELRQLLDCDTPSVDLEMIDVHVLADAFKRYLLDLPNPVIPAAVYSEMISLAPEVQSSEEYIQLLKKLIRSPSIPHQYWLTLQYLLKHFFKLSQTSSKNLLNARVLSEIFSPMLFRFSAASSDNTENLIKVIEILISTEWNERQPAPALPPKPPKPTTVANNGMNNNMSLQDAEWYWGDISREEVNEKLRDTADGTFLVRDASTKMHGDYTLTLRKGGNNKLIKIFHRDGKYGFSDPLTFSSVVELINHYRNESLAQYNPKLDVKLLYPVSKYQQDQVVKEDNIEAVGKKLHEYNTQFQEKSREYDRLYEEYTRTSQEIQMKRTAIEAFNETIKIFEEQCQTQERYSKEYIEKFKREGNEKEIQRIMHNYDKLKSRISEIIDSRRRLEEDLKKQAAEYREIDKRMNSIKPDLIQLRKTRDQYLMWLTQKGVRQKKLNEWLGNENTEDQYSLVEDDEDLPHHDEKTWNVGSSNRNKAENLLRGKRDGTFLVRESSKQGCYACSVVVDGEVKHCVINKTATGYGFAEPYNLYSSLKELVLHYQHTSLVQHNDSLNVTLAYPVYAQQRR
row,SMILES,Relative Selectivity versus PI3Kalpha
1,"CCn1c(-c2cnc(C)nc2)nc2c(OC3CN(C(=O)C4CC4)CC3O)ncnc21 (single isomer, unassigned) [Compound 2-100, [(3R,4R) or (3S,4S)]-trans-1-(cyclopropylcarbonyl)-4-{[9-ethyl-8-(2-methylpyrimidin-5-yl)-9H-purin-6-yl]oxy}pyrrolidin-3-ol]",>10
2,"CCn1c(-c2cnc(C)nc2)nc2c(OC3CN(C(=O)C4CC4)CC3OC)ncnc21 (single isomer, unassigned) [Compound 2-115]",>10
3,"CCn1c(-c2cnc(C)nc2)nc2c(O[C@H]3CCN(C(=O)C4CCC4C)C3)ncnc21 (single isomer, unassigned) [Compound 2-117, 9-ethyl-6-({(3S)-1-[([(1R,2S) or (1R,2R) or (1S,2R) or (1S,2S)]-methylcyclobutyl)carbonyl]pyrrolidin-3-yl}oxy)-8-(2-methylpyrimidin-5-yl)-9H-purine]",>10
4,"CCn1c(-c2cnc(C)nc2)nc2c(O[C@H]3CCN(C(=O)C4CCC4C)C3)ncnc21 (single isomer, unassigned) [Compound 2-118, 9-ethyl-6-({(3S)-1-[([(1R,2S) or (1R,2R) or (1S,2R) or (1S,2S)]-methylcyclobutyl)carbonyl]pyrrolidin-3-yl}oxy)-8-(2-methylpyrimidin-5-yl)-9H-purine]",>10
5,"CCn1c(-c2cnc(C)nc2)nc2c(O[C@H]3CCN(C(=O)C4CCC4C)C3)ncnc21 (single isomer, unassigned) [Compound 2-119, 9-ethyl-6-({(3S)-1-[([(1R,2S) or (1R,2R) or (1S,2R) or (1S,2S)]-methy]cyclobutyl)carbonyl]pyrrolidin-3-yl}oxy)-8-(2-methylpyrimidin-5-yl)-9H-purine]",>10
6,"CCn1c(-c2cnc(C)nc2)nc2c(O[C@H]3CCN(C(=O)C4CCC4C)C3)ncnc21 (single isomer, unassigned) [Compound 2-120, 9-ethyl-6-({(3S)-1-[([(1R,2S) or (1R,2R) or (1S,2R) or (1S,2S)]-methylcyclobutyl)carbonyl]pyrrolidin-3-yl}oxy)-8-(2-methylpyrimidin-5-yl)-9H-purine]",>10
7,"CCn1c(-c2cnc(C)nc2)nc2c(O[C@H]3CCN(C(=O)C4CC4C(F)F)C3)ncnc21 (single isomer, unassigned) [Compound 2-124, 6-{[(3S)-{(1S,2S)- or (1R,2R)-[2-(difluoromethyl)cyclopropyl]carbonyl}pyrrolidin-3-yl]oxy}-9-ethyl-8-(2-methylpyrimidin-5-yl)-9H-purine]",>10
8,"CCn1c(-c2cnc(C)nc2)nc2c(O[C@H]3CCN(C(=O)C4CC4C(F)F)C3)ncnc21 (single isomer, unassigned) [Compound 2-125, 6-{[(3S)-1-{(1S,2S)- or (1R,2R)-[2-(difluoromethyl)cyclopropyl]carbonyl}pyrrolidin-3-yl]oxy}-9-ethyl-8-(2-methylpyrimidin-5-yl)-9H-purine]",>10
9,"CCn1c(-c2cnc(C)nc2)nc2c(O[C@H]3CCN(C(=O)C4CC4(C)C)C3)ncnc21 (single isomer, unassigned) [Compound 2-126, 6-({(3S)-1-[S- or R-(2,2-dimethylcyclopropyl)carbonyl]pyrrolidin-3-yl}oxy)-9-ethyl-8-(2-methylpyrimidin-5-yl)-9H-purine]",>10
10,"CCn1c(-c2cnc(C)nc2)nc2c(O[C@H]3CCN(C(=O)C4CC4(C)C)C3)ncnc21 (single isomer, unassigned) [Compound 2-127, 6-({(3S)-1-[S- or R-(2,2-dimethylcyclopropyl)carbonyl]pyrrolidin-3-yl}oxy)-9-ethyl-8-(2-methylpyrimidin-5-yl)-9H-purine]",>10
11,"CCn1c(-c2cnc(C)nc2)nc2c(O[C@H]3CCN(C(=O)C4CC4CO)C3)ncnc21 (single isomer, unassigned) [Compound 2-130, (1S,2S)- or (1R,2R)-{[(3S)-3-{[9-ethyl-8-(2-methylpyrimidin-5-yl)-9H-purin-6-yl]oxy}pyrrolidin-1-yl]carbonyl}cyclopropyl)methanol]",>10
12,"CCn1c(-c2cnc(C)nc2)nc2c(O[C@H]3CCN(C(=O)C4CC4CO)C3)ncnc21 (single isomer, unassigned) [Compound 2-131, (1S,2S)- or (1R,2R)-{[(3S)-3-{[9-ethyl-8-(2-methylpyrimidin-5-yl)-9H-purin-6-yl]oxy}pyrrolidin-1-yl]carbonyl}cyclopropyl)methanol]",>10
13,"CCn1c(-c2cnc(C)nc2)nc2c(O[C@H]3CCN(C(=O)C4CC4CF)C3)ncnc21 (single isomer, unassigned) [Compound 2-132, 9-ethyl-6-{[(3S)-1-{[(1S,2S)- or (1R,2R)-2-(fluoromethyl)cyclopropyl]carbonyl}pyrrolidin-3-yl]oxy}-8-(2-methylpyrimidin-5-yl)-9H-purine]",>10
14,"CCn1c(-c2cnc(C)nc2)nc2c(O[C@H]3CCN(C(=O)C4CC4CF)C3)ncnc21 (single isomer, unassigned) [Compound 2-133, 9-ethyl-6-{[(3S)-1-{[(1S,2S)- or (1R,2R)-2-(fluoromethyl)cyclopropyl]carbonyl}pyrrolidin-3-yl]oxy}-8-(2-methylpyrimidin-5-yl)-9H-purine]",>10
15,"CCn1c(-c2cnc(C)nc2)nc2c(O[C@H]3CCN(C(=O)C4CC4F)C3)ncnc21 (single isomer, unassigned) [Compound 2-134, 9-ethyl-6-(((3S)-1-[((1R,2R)- or (1S,2S)-2-fluorocyclopropyl)carbonyl]pyrrolidin-3-yl}oxy)-8-(2-methylpyrimidin-5-yl)-9H-purine]",>10
16,"CCn1c(-c2cnc(C)nc2)nc2c(O[C@H]3CCN(C(=O)C4CC4F)C3)ncnc21 (single isomer, unassigned) [Compound 2-135, 9-ethyl-6-({(3S)-1-[((1R,2R)- or (1S,2S)-2-fluorocyclopropyl)carbonyl]pyrrolidin-3-yl}oxy)-8-(2-methylpyrimidin-5-yl)-9H-purine]",>10
17,"CCn1c(-c2cnc(C)nc2)nc2c(OC3CN(C(=O)C4CC4)CC3F)ncnc21 (single isomer, unassigned) [Compound 2-137, 6-{[1-(cyclopropylcarbonyl)-(3S,4S)- or (3R,4R)-4-fluoropyrrolidin-3-yl]oxy}-9-ethyl-8-(2-methylpyrimidin-5-yl)-9H-purine]",>10
18,"CCn1c(-c2cnc(C)nc2)nc2c(OC3CN(C(=O)C4CC4)CC3F)ncnc21 (single isomer, unassigned) [Compound 2-138, 6-{[1-(cyclopropylcarbonyl)-(3S,4S)- or (3R,4R)-4-fluoropyrrolidin-3-yl]oxy}-9-ethyl-8-(2-methylpyrimidin-5-yl)-9H-purine]",>10
19,"CCC1CN(C(=O)C2CC2)C[C@H]1Oc1ncnc2c1nc(-c1cnc(C)nc1)n2CC (single isomer, unassigned) [Compound 3-47, [3R,4S or 3S,4R]-6-{[1-(cyclopropylcarbonyl)-4-ethylpyrrolidin-3-yl]oxy}-9-ethyl-8-(2-methylpyrimidin-5-yl)-9H-purine]",>10
